Assay results reported in publication PMC6308302, “Identification of Pharmacokinetic Markers for Guanxin Danshen Drop Pills in Rats by Combination of Pharmacokinetics, Systems Pharmacology, and Pharmacodynamic Assays” (Frontiers in Pharmacology, 2018).
Entries after “also recorded” stand apart in the source; their conditions may differ. Marks after values point to notes of the source that are not given here. Blank lines part the entries; values can stand above or below the molecule they belong to.

Columns and labels:
[1] = Multiple component PK study in rat plasma after p.o. GDDP (HPLC-MS); settings: for detection in rat plasma: at 5, 10, 15, 30, 45, or 60 min, LOD 0.5–0.7 ng/mL; for AUC(0-inf) / AUC(0-t) / MRT inf / MRT last / Tmax / Cmax / half-life: Sprague-Dawley, rat, plasma, po
[2] = Aqueous solubility test (vortexing in water); type: physicochemical; settings: thermodynamic from solid; determined, water, 25 °C, 1 atm
Method: Aqueous solubility (S) test of the 17 ingredients was performed by vortexing 10 mg of each ingredient in […] water in a test tube at ambient temperature and 1 atm. After vortexing for 5 min, if the solution is clear, the tested object will be considered as soluble in water. In silico assessment of the physicochemical properties governing permeation and intestinal absorption was carried out for the 17 ingredients studied. Theory aqueous solubility (S) was calculated with ALOGPS 2.1 online software via the Virtual Computational Chemistry Laboratory service (Chemoinformatics Group, Neuherberg, Germany) (VCCLAB^1). The octanol–water partition coefficient (cLogP), the total hydrogen bond count (donors and acceptors), and topological polar surface area (TPSA) were determined using the Molinspiration Property Calculator (Molinspiration Cheminformatics, Bratislava, Slovak Republic^2). Lipinski’s rule of 5 was used to predict the permeability of the compound ([Lipinski et al., 2001]).

Caco-2 cell monolayers = settings: ref Lu et al., 2008, Liu et al., 2009, Hu et al., 2014, Bowles et al., 2017, cited from earlier work; for Papp(apical→basolateral) / Papp(basolateral→apical): Caco-2 cell monolayers, from literature; for apparent permeability in Caco-2 cell monolayers: previous results
[3] = test system: isoprenaline-induced MI in mice; assay: In vivo anti-MI study: isoprenaline-induced myocardial injury (ECG, H&E histology)
[4] = Stability tests in rat plasma (QC samples, HPLC-MS); settings: n=5
From the text: Accuracy and precision were expressed by relative error (RE) and coefficient of variance (RSD), respectively.

[5] = 24h in auto-sampler vials, spiked 2 ng/mL
[6] = 24h in auto-sampler vials, spiked 400 ng/mL
[7] = 24h in auto-sampler vials, spiked 1600 ng/mL
[8] = Placing plasma for 6h at 4°C, spiked 2 ng/mL
[9] = Placing plasma for 6h at 4°C, spiked 400 ng/mL
[10] = Placing plasma for 6h at 4°C, spiked 1600 ng/mL
[11] = three freeze-thaw cycles, rat plasma, spiked 2 ng/mL
[12] = three freeze-thaw cycles, rat plasma, spiked 400 ng/mL
[13] = three freeze-thaw cycles, rat plasma, spiked 1600 ng/mL

SMILES: CC(C)=CCC[C@](C)(O[C@@H]1O[C@H](CO)[C@@H](O)[C@H](O)[C@H]1O)[C@H]1CC[C@]2(C)[C@@H]1[C@H](O)C[C@@H]1[C@@]3(C)CC[C@H](O[C@@H]4O[C@H](CO)[C@@H](O)[C@H](O)[C@H]4O[C@@H]4O[C@H](CO)[C@@H](O)[C@H](O)[C@H]4O)C(C)(C)[C@@H]3CC[C@]12C [Rd, ginsenoside Rd]
determination in rat plasma at the planned successive PK time points ([1]; GDDP 0.8 g/kg p.o., 5, 10, 15, 30, 45, 60, and 120 min, LOQ 1.0–1.4 ng/mL): could be determined
detection in rat plasma ([1]; GDDP 0.8 g/kg p.o.): could be detected
AUC(0-inf) ([1]; 0.4 g/kg): 340 ± 348 ng·h/mL
AUC(0-t) ([1]; 0.4 g/kg): 254 ± 236 ng·h/mL
MRT inf ([1]; 0.4 g/kg): 12.8 ± 8.78 h
MRT last ([1]; 0.4 g/kg): 8.88 ± 3.79 h
Tmax ([1]; 0.4 g/kg): 9 ± 4.24 h
Cmax ([1]; 0.4 g/kg, Cmax, rat plasma, GDDP 0.4 g/kg p.o. (Low dose group), n=3): 24.5 ± 4.04 ng/mL
half-life ([1]; 0.4 g/kg, t1/2 β, rat plasma, GDDP 0.4 g/kg p.o. (Low dose group), n=3): 5.63 ± 5.88 h
AUC(0-inf) ([1]; 0.8 g/kg): 378 ± 56.4 ng·h/mL
AUC(0-t) ([1]; 0.8 g/kg): 281 ± 28.1 ng·h/mL
MRT inf ([1]; 0.8 g/kg): 17.3 ± 2.01 h
MRT last ([1]; 0.8 g/kg): 10.7 ± 2.31 h
Tmax ([1]; 0.8 g/kg): 2.25 ± 3.25 h
Cmax ([1]; 0.8 g/kg, Cmax (high / low plasma drug concentrations), rats, GDDP 0.4 and 0.8 g/kg p.o., classification): > 20 ng/mL
Cmax ([1]; 0.8 g/kg, Cmax, rat plasma, GDDP 0.8 g/kg p.o. (High dose group), n=3): 37.2 ± 26.3 ng/mL
half-life ([1]; 0.8 g/kg, t1/2 β (fast / slow elimination type), rats, GDDP 0.4 and 0.8 g/kg p.o., classification): > 2.6 h
half-life ([1]; 0.8 g/kg, t1/2 β, rat plasma, GDDP 0.8 g/kg p.o. (High dose group), n=3): 8.53 ± 4.42 h
Cltot ([1]; rat plasma, GDDP 0.4 g/kg p.o. (Low dose group), n=3): 624.2 ± 638.8 mL/min/kg
Cltot ([1]; rat plasma, GDDP 0.8 g/kg p.o. (High dose group), n=3): 350.3 ± 310.5 mL/min/kg
solubility at 5 min [2]: > 10000 µg/mL
Papp(apical→basolateral) (Caco-2 cell monolayers): > 0.1^c ×10^-6 cm/s
Papp(basolateral→apical) (Caco-2 cell monolayers): > 0.1^c ×10^-6 cm/s
apparent permeability in Caco-2 cell monolayers (Caco-2 cell monolayers): > 10^-7 cm/s
Histopathology of heart tissue (H&E) ([3]; 40 mg/kg p.o. for 7 days, isoprenaline-induced MI, 40 mg/kg): remarkably severe histological damage with extensive myocardial lysis and architecture wrecking; also recorded: extremely severe histological damage with extensive myocardial lysis and architecture wrecking
ECG (lead II) findings on the fifth day of the trial ([3]; 40 mg/kg p.o., isoprenaline 5 mg/kg on days 4 and 5): ST segment elevated
Stability: Measured [4, 5]: 1.93 ± 0.23 ng/mL
Stability: RE [4, 5]: -3.59%
Stability: Measured [4, 6]: 406.43 ± 27.13 ng/mL
Stability: RE [4, 6]: 1.61%
Stability: Measured [4, 7]: 1489.53 ± 52.70 ng/mL
Stability: RE [4, 7]: -6.90%
Stability: Measured [4, 8]: 1.65 ± 0.33 ng/mL
Stability: RE [4, 8]: -17.56%
Stability: Measured [4, 9]: 449.87 ± 18.67 ng/mL
Stability: RE [4, 9]: 12.47%
Stability: Measured [4, 10]: 1891.74 ± 134.38 ng/mL
Stability: RE [4, 10]: 18.23%
Stability: Measured [4, 11]: 1.81 ± 0.18 ng/mL
Stability: RE [4, 11]: -9.59%
Stability: Measured [4, 12]: 438.01 ± 11.23 ng/mL
Stability: RE [4, 12]: 9.50%
Stability: Measured [4, 13]: 1768.72 ± 60.05 ng/mL
Stability: RE [4, 13]: 10.54%

SMILES: O=Cc1ccc(O)c(O)c1 [PCAL, protocatechuic aldehyde]
detection in rat plasma ([1]; GDDP 0.8 g/kg p.o.): could be detected
solubility at 5 min [2]: > 10000 µg/mL
Papp(apical→basolateral) (Caco-2 cell monolayers): 12.1^a ×10^-6 cm/s
Papp(basolateral→apical) (Caco-2 cell monolayers): 21.8^a ×10^-6 cm/s
apparent permeability in Caco-2 cell monolayers (Caco-2 cell monolayers): ≥ 10^-6 cm/s

detection in rat plasma ([1]; GDDP 0.8 g/kg p.o.): could be detected
solubility at 5 min [2]: > 10000 µg/mL
SMILES: CC(C)=CCC[C@](C)(O[C@@H]1O[C@H](CO)[C@@H](O)[C@H](O)[C@H]1O)[C@H]1CC[C@]2(C)[C@@H]1[C@H](O)C[C@@H]1[C@@]3(C)CC[C@H](O)C(C)(C)[C@@H]3[C@@H](O[C@@H]3O[C@H](CO)[C@@H](O)[C@H](O)[C@H]3O[C@@H]3O[C@@H](C)[C@H](O)[C@@H](O)[C@H]3O)C[C@]12C [Re, ginsenoside Re]
Papp(apical→basolateral) (Caco-2 cell monolayers): > 0.1^c ×10^-6 cm/s
Papp(basolateral→apical) (Caco-2 cell monolayers): > 0.1^c ×10^-6 cm/s

solubility at 5 min [2]: > 10000 µg/mL
SMILES: O=C(O)/C=C/c1ccc(O)c(O)c1 [CA, caffeic acid]
Papp(apical→basolateral) (Caco-2 cell monolayers): 4.35^b ×10^-6 cm/s
Papp(basolateral→apical) (Caco-2 cell monolayers): 7.74^b ×10^-6 cm/s
apparent permeability in Caco-2 cell monolayers (Caco-2 cell monolayers): ≥ 10^-6 cm/s

detection in rat plasma ([1]; GDDP 0.8 g/kg p.o.): could be detected
solubility at 5 min [2]: > 10000 µg/mL
SMILES: O=C(O)c1ccc(O)c(O)c1 [PCA, protocatechuic acid]
Papp(apical→basolateral) (Caco-2 cell monolayers): 4.52^b ×10^-6 cm/s
Papp(basolateral→apical) (Caco-2 cell monolayers): 6.91^b ×10^-6 cm/s
apparent permeability in Caco-2 cell monolayers (Caco-2 cell monolayers): ≥ 10^-6 cm/s

solubility at 5 min [2]: > 10000 µg/mL
SMILES: O=C(/C=C/c1ccc(O)c2c1C(C(=O)OC(Cc1ccc(O)c(O)c1)C(=O)O)C(c1ccc(O)c(O)c1)O2)OC(Cc1ccc(O)c(O)c1)C(=O)O (centres unmarked) [SAB, SA B]
Papp(apical→basolateral) (Caco-2 cell monolayers): 0.0200^a ×10^-6 cm/s
Papp(basolateral→apical) (Caco-2 cell monolayers): 0.0377^a ×10^-6 cm/s
